# Data from US10745363B2 (NORATECH PHARMACEUTICALS, INC., priority 2016, dated 2020).
# Counter-ions that a name gives are not always drawn.
# Experiments:
# [1] = Determination of hygroscopicity (water absorption in open weighing bottle, artificial climate chamber); format: physicochemical; conditions: 25±1° C., relative humidity 43.5±2%; for Water absorption, %: open weighing bottle, disodium salt
# Procedure: 1. Take a dry stuffed glass weighing bottle (outer diameter 50 mm, height 15 mm) in the artificial climate chamber (set temperature is 25±1° C., relative humidity is 43.5±2%) and weight it (m1).
# 2. Take the appropriate amount of the crystalline form in the present invention, and place it in the abovementioned weighing bottle and lay it inside the weighing bottle. The thickness of the test sample is generally about 1 mm. Weight the sample (m2).
# 3. Uncover the weighing bottle and place it with the bottle cap under constant temperature and humidity (set temperature is 25±1° C., relative humidity is 43.5±2%).
# 4. Put the cap back on the weighing bottle before weighing, and then weight it (m3). The water absorption percentage for each time point is calculated by the formula=(m3−m2)/(m2−m1)×100%.
# [2] = cited from earlier work
smiles,measurement,setting,value
"CCCCC(=O)N(Cc1ccc(-c2ccccc2-c2nnn[nH]2)cc1)[C@H](C(=O)O)C(C)C [Crystalline form A, valsartan disodium salt]","Water absorption, %","[1]; 2 h, listed as A",1.6%
same,water absorption,"[1]; 3 hours, open container",2.6%
same,"Water absorption, %","[1]; 4 h, listed as A",2.0%
same,"Water absorption, %","[1]; 24 h, listed as A",2.4%
"CCCCC(=O)N(Cc1ccc(-c2ccccc2-c2nnn[nH]2)cc1)[C@H](C(=O)O)C(C)C [Crystalline form B, valsartan disodium salt]","Water absorption, %","[1]; 2 h, listed as B",1.9%
same,"Water absorption, %","[1]; 4 h, listed as B",2.3%
same,"Water absorption, %","[1]; 24 h, listed as B",3.0%
"CCCCC(=O)N(Cc1ccc(-c2ccccc2-c2nnn[nH]2)cc1)[C@H](C(=O)O)C(C)C [Crystalline form D, valsartan disodium salt]","Water absorption, %","[1]; 2 h, listed as D",1.3%
same,"Water absorption, %","[1]; 4 h, listed as D",1.9%
same,"Water absorption, %","[1]; 24 h, listed as D",2.7%
"CCCCC(=O)N(Cc1ccc(-c2ccccc2-c2nnn[nH]2)cc1)[C@H](C(=O)O)C(C)C [Crystalline form E, valsartan disodium salt]","Water absorption, %","[1]; 2 h, listed as E",2.1%
same,"Water absorption, %","[1]; 4 h, listed as E",2.9%
same,"Water absorption, %","[1]; 24 h, listed as E",3.6%
"CCCCC(=O)N(Cc1ccc(-c2ccccc2-c2nnn[nH]2)cc1)[C@H](C(=O)O)C(C)C [Crystalline form F, valsartan disodium salt]","Water absorption, %","[1]; 2 h, listed as F",1.7%
same,"Water absorption, %","[1]; 4 h, listed as F",2.2%
same,"Water absorption, %","[1]; 24 h, listed as F",2.8%
"CCCCC(=O)N(Cc1ccc(-c2ccccc2-c2nnn[nH]2)cc1)[C@H](C(=O)O)C(C)C [Crystalline form G, valsartan disodium salt]","Water absorption, %","[1]; 2 h, listed as G",0.7%
same,"Water absorption, %","[1]; 4 h, listed as G",1.3%
same,"Water absorption, %","[1]; 24 h, listed as G",1.5%
"CCCCC(=O)N(Cc1ccc(-c2ccccc2-c2nnn[nH]2)cc1)[C@H](C(=O)O)C(C)C [Crystalline form H, valsartan disodium salt]","Water absorption, %","[1]; 2 h, listed as H",2.0%
same,"Water absorption, %","[1]; 4 h, listed as H",2.8%
same,"Water absorption, %","[1]; 24 h, listed as H",4.0%
CCCCC(=O)N(Cc1ccc(-c2ccccc2-c2nnn[nH]2)cc1)[C@H](C(=O)O)C(C)C [Valsartan sodium salt],hygroscopicity (in words),[2]; background statement,hygroscopic
CCCCC(=O)N(Cc1ccc(-c2ccccc2-c2nnn[nH]2)cc1)[C@H](C(=O)O)C(C)C [valsartan disodium salt],hygroscopicity,"[2]; equilibrated in air, 5.36 mol H2O by elemental analysis (CN01813039.9)",up to 20%
